Assay results published in patent US7553881B2, “Dental materials based on radically polymerizable macromers with antimicrobial effect” (Ivoclar Vivadent AG, priority 2006, dated 2009).

Test system: Staphylococcus aureus
Assay: Antimicrobial examination of photopolymerized, washed adhesive films on slides
Assay type: cell-based
Details: adhesive with 5 wt.-% MDPB, film washed two days with water
Experimental: The above adhesives were applied to a slide and photopolymerized using a UV lamp.
In a Petri dish, a modified slide was covered with 30 ml of a Staphylococcus aureus suspension in PBS (→10^7 bacteria cells/ml) and then incubated accompanied by light shaking (50 rpm) for 1 h at 37° C. The bacterial suspension was then drawn off and the slide was washed with pure PBS (15+15 ml). The slide was then dried, transferred to a new Petri dish, covered with 30 ml 1.5% nutrient agar and then incubated at 37° C. A blind sample was then analogously tested in each case using a slide which was coated with adhesive without biocidal macromer.
The mixture was applied to a slide and photopolymerized with the help of a UV lamp. […] A slide which had been coated with adhesive without the biocidal monomer MDPH served as comparison.

C=C(C)C(=O)OCCCCCCCCCCCC[n+]1ccccc1.[Br-] [MDPB, 12-methacryloyloxydodecylpyridinium bromide]
bacterial growth on slide coated with polymerized adhesive: no bacterial decay attack on the film itself
bacterial growth on slide coated with polymerized adhesive (listed as MDPH): no bacterial attack
